Converted amounts (≈) assume the structure as drawn.
Key:
[1] = tested on: Candida albican; settings: Antimicrob. Agents Chemother., (1980), 18(2), 231-9; cited from earlier work
[2] = tested on: Candida and Cryptococcus strains (organism not given); assay: Broth microdilution antifungal activity, Table II second MIC/MCC column pair; assay type: cell-based; settings: second column pair of Table II; for MIC = Minimum inhibitory concentration (50% Inhibition): 48 hrs, 35° C., YNB broth pH 7.0; for MCC = Minimum cytolytic concentration: subculture on SDA plate
Description: (§1) Organisms: Three strains of Candida (Candida parpsilosis, Candida tropicalis, Candida albicans-ATCC 36082) as well as Cryptococcus neoformans were used for the initial testing. Active compounds were then tested against fluconazole resistant Candida albicans, Candida krusei, Torulopsis glabrata, and Cryptococcus neoformans along with Sporothrix shenkii and Aspergillus flavus in the secondary round of testing. All clinical strains used in this study were blood culture isolates from the Clinical Microbiology Laboratory of Harbor-UCLA Medical Center, Torrance, Calif. The organisms were maintained on Sabourahd Dextrose Agar slants at 4° C. For experimentation, singlet suspensions of each organism were prepared by growing the yeast overnight at 27° C. on a rotating drum in yeast-nitrogen base broth (YNB) with amino acids (Difco, Detroit, Mich.), pH 7.0 with 0.05M morpholinepropanesulfonic acid (MOPS). The suspension was then centrifuged and washed twice with 0.85% NaCl. This was followed by sonication of the washed cell suspension for 4s (Branson Sonifier, model 350, Danbury, Conn.). The singlet blastospores were counted in a hemocytometer and adjusted to the desired concentration in 0.85% NaCl.
(§2) Antifungal Activity: The antifungal activity of the compounds and Fluconazole against the Candida and Cryptococcus strains were determined using a modification of a broth microdilution technique. Test compounds were diluted in DMSO to a 1.0 mg/ml ratio then diluted to 64 μg/ml in YNB broth, pH 7.0 with MOPS (Fluconazole was used as the control). This was to provide a working solution of each compound. Using a 96-well plate, wells 1 and 3 through 12 were prepared with YNB broth, […] dilutions of the compound solution were made in wells 2 through 11 (concentration ranges were 64 to 0.125 μg/ml). Well one served as a sterility control and blank for the spectrophotometric assays. Well twelve served as a growth control. The microtiter plates were inoculated with 10 ul in each of well 2 through 11 (final inoculum size was 10^4 organisms/ml). Inoculated plates were incubated for 48 hrs., at 35° C. The MIC values were determined spectrophotometrically by measuring the absorbance at 420 nm (Automatic Microplate Reader, DuPont Instruments, Wilmington, Del.) after agitation of the plates for 2 min with a vortex-mixer (Vorte-Genie 2 Mixer, Scientific Industries, Inc., Bolemia, N.Y.). […] With the turbidity assay this was defined as the lowest drug concentration at which turbidity in the well was <50% of the control (IC50) Minimal Cytolytic Concentrations (MCC) were determined by subculturing all wells from the 96-well plate onto a Sabourahd Dextrose Agar (SDA) plate and incubated for 1 to 2 days at 35° C. and the viability was checked.

[3] = tested on: Candida and Cryptococcus strains (organism not given); assay: Broth microdilution antifungal activity, Table II fourth MIC/MCC column pair; assay type: cell-based; settings: fourth column pair of Table II; for MIC = Minimum inhibitory concentration (50% Inhibition): 48 hrs, 35° C., YNB broth pH 7.0; for MCC = Minimum cytolytic concentration: subculture on SDA plate
Description: as §1, with “Active compounds were then tested against fluconazole resistant Candida albicans, Candida krusei, Torulopsis glabrata, and Cryptococcus neoformans along with Sporothrix shenkii and Aspergillus flavus in the secondary round of testing.” left out
as §2

[4] = tested on: Candida and Cryptococcus strains (organism not given); assay: Broth microdilution antifungal activity, Table II third MIC/MCC column pair; assay type: cell-based; settings: for MIC = Minimum inhibitory concentration (50% Inhibition): 48 hrs, 35° C., YNB broth pH 7.0; for MCC = Minimum cytolytic concentration: subculture on SDA plate
Description: as §1, §2

[5] = tested on: Candida and Cryptococcus strains (organism not given); assay: Broth microdilution antifungal activity, Table II first MIC/MCC column pair; assay type: cell-based; settings: first column pair of Table II; for MIC = Minimum inhibitory concentration (50% Inhibition): 48 hrs, 35° C., YNB broth pH 7.0; for MCC = Minimum cytolytic concentration: subculture on SDA plate
Description: as §1, with “Active compounds were then tested against fluconazole resistant Candida albicans, Candida krusei, Torulopsis glabrata, and Cryptococcus neoformans along with Sporothrix shenkii and Aspergillus flavus in the secondary round of testing.” left out
as §2

Row | MIC = Minimum inhibitory concentration (50% Inhibition) [2] | MIC = Minimum inhibitory concentration (50% Inhibition) [3] | MIC = Minimum inhibitory concentration (50% Inhibition) [4] | MIC = Minimum inhibitory concentration (50% Inhibition) [5] | Structure (SMILES) | MIC50 [1] | MCC = Minimum cytolytic concentration [2] | MCC = Minimum cytolytic concentration [3] | MCC = Minimum cytolytic concentration [4] | MCC = Minimum cytolytic concentration [5]
1 | – | – | – | – | N=C(N)c1ccc(-c2nnc(-c3ccc(C(=N)N)cc3)o2)cc1 | > 60 µg/mL | – | – | – | –
2 | 4 µg/mL (≈ 11.3 µM) | 2 µg/mL (≈ 5.64 µM) | 2 µg/mL (≈ 5.64 µM) | 2 µg/mL (≈ 5.64 µM) | C=CCN(C)Cc1ccc(-c2csc(-c3ccc(Cl)cc3)n2)cc1 [Example 1g, 2-(4′-chlorophenyl)-4-[4″-(N-methyl-N-allylaminomethyl)phenyl]thiazole] | – | 8 µg/mL | 8 µg/mL | 8 µg/mL | 8 µg/mL
3 | 8 µg/mL (≈ 25.9 µM) | 0.25 µg/mL (≈ 0.808 µM) | 0.5 µg/mL (≈ 1.62 µM) | 4 µg/mL (≈ 12.9 µM) | COc1ccc(-c2nnc(-c3ccc(CN(C)C)cc3)o2)cc1 [Example 9j, 2-(4′-methoxyphenyl)-5-[4″-(dimethylaminomethyl)phenyl]-1,3,4-oxadiazole] | – | 8 µg/mL | 8 µg/mL | 0.5 µg/mL | 32 µg/mL

Source: patent US20010000177A1, “Novel class of thiomorpholino substituted thiazoles” (priority 1999, published 2001)
